{
  "source": "patent US20230416329A1",
  "about": "“A PEPTIDE WITH DISULFIDE BONDS AND INHIBITORY ACTIVITY AGAINST SERINE PROTEASES, DERIVED HYBRID PEPTIDES THEREOF, AND USES THEREOF” (INSTITUTE OF MATERIA MEDICA , CHINESE ACADEMY OF MEDICAL …, priority 2020, published 2023)",
  "key": {"[1]": {"tested_on": "P407-induced hyperlipidemia mice", "assay": "Subcutaneous injection of PCSK9 inhibitory peptide, serum total cholesterol in P407-induced hyperlipidemia mice", "assay_type": "in vivo, mouse", "conditions": "for serum total cholesterol (TC) level after subcutaneous injection (in words): 2 μmol/kg single s.c., P407-induced hyperlipidemia mice", "procedure": "The experimental peptide sample was prepared using PEG400 with a final concentration of […], and the final concentration of PEG400 is 20% (w/v). Normal ICR mice were fasted overnight with water ad libitum. The next day, all of the mice were randomly divided into model control group (Con) and polypeptide administration group (2 μmol/kg) according to body weight. Then, all of the mice were intraperitoneally injected with P407 (500 mg/kg) and fed with feed 2 hours later. Six mice were taken as a normal control group (Nor). After 24 hours, the mice in Con were subcutaneously injected with saline containing 20% PEG400, and the mice in the treatment group were given peptides. Then, the blood was taken at different time points after administration to determine the serum total cholesterol (TC) level. In consideration of the complexity of factors affecting serum LDL-C levels, especially the differences between single and long-term administration, the in vivo activity of PCSK9 inhibitory peptide is mainly observed for changes in serum TC levels."}, "[2]": {"tested_on": "P407 induced hyperlipidemia mice", "assay": "Duodenal injection of PCSK9 inhibitory peptide, serum total cholesterol in P407 induced hyperlipidemia mice", "assay_type": "in vivo, mouse", "procedure": "The experimental polypeptide sample was prepared using PEG400 with a final concentration of 20 μmol/kg and the final concentration of PEG400 is 50% (w/v). The control group was saline containing PEG400 (50%).\nNormal ICR mice were fasted overnight with water ad libitum. The next day, all of the mice were intraperitoneally injected with poloxamer 407 (P407, 500 mg/kg) to establish a model of lipid metabolism disorder. Six mice were intraperitoneally injected with saline as a normal control (Nor). Normal feeding resumed after 2 hours. The model animals were randomly divided into model group (Con) and polypeptide groups according to body weight, and the blood was collected from tail tip (0 min). Then, the animals were anesthetized with ether for duodenal exposure surgery. At the same time, a sample or saline containing PEG400 was injected through the duodenum. Finally, the wound was sutured. The blood was collected from tail tip at 15, 30, 60, and 90 minutes after administration to determine the serum total cholesterol level."}, "[3]": {"molecular_target": "T1, interaction of PCSK9-LDLR (Homo sapiens, UniProt Q8NBP7)", "T1 construct": "purchased MBL Company, Beijing, China CY-8150", "assay": "PCSK9-LDLR in vitro binding assay (inhibitory rate)", "conditions": "in vitro", "procedure": "Polypeptide PCSK9_1-14 (SEQ ID NOs: 210-223) is dissolved in pure water or DMSO. 85 μL reaction buffer, 5 μL 1 mM polypeptide sample and 10 μL 750 ng/mL PCSK9 protein was pre-incubated at room temperature for 20 minutes before being added to a 96 well plate. The OD450/540 nm value was measured according to the instructions of the PCSK9-LDLR in Vitro Binding Assay Kit (CY-8150, MBL Company, Beijing, China). Solvent control: replace polypeptide with 5 μL solvent. In 100 μL reaction system, the final concentration of the polypeptide and PCSK9 is 50 μM and 75 ng/mL, respectively.\nInhibition rate of polypeptide (%)=(OD450/540 nm(solvent control)−OD450/540 nm (sample))/OD450/540 nm(solvent control)×100"}},
  "note": "Bridge positions count the residues as written; N and C are the ends. Ends that are not written are not given here.",
  "data": [
    {"substance": "Trp-Glu-Glu-Tyr-Leu-Asp-Tyr-Val-Gly-Ile-Cys-Thr-Ala-Ser-Ile-Pro-Pro-Ile-Cys-Gln-Gly-Thr-Val-Phe-Thr-Ser (WEEYLDYVGICTASIPPICQGTVFTS; disulfide 11-19 (inferred)) [PCSK9_6EC]", "values": [
      {"measurement": "serum total cholesterol (TC) level after subcutaneous injection (in words)", "setting": "[1]", "value": "reduced serum TC level"},
      {"measurement": "serum total cholesterol (TC) level after subcutaneous injection (in words)", "setting": "[1]; listed as SEQ ID NO: 231", "value": "excellent lowering lipid (total cholesterol) activities in vivo"},
      {"measurement": "TC 15 min", "setting": "[1]; serum, subcutaneous 2 μmol/kg, 15 min after administration, mean ± sd", "value": "2438 ± 610", "unit": "µg/mL"},
      {"measurement": "TC 30 min", "setting": "[1]; serum, subcutaneous 2 μmol/kg, 30 min after administration, mean ± sd", "value": "2369 ± 574", "unit": "µg/mL"},
      {"measurement": "TC 60 min", "setting": "[1]; serum, subcutaneous 2 μmol/kg, 60 min after administration, mean ± sd", "value": "2345 ± 638", "unit": "µg/mL"},
      {"measurement": "TC 90 min", "setting": "[1]; serum, subcutaneous 2 μmol/kg, 90 min after administration, mean ± sd", "value": "2274 ± 586", "unit": "µg/mL"},
      {"measurement": "hypolipidemic activity after duodenal administration (in words)", "setting": "[2]; 20 μmol/kg, P407 induced hyperlipidemia mice", "value": "did not show hypolipidemic activity"},
      {"measurement": "TC 15 min", "setting": "[2]; serum, duodenal injection 20 μmol/kg, 15 min, mean ± sd", "value": "3166 ± 343", "unit": "µg/mL"},
      {"measurement": "TC 30 min", "setting": "[2]; serum, duodenal injection 20 μmol/kg, 30 min, mean ± sd", "value": "2931 ± 673", "unit": "µg/mL"},
      {"measurement": "TC 60 min", "setting": "[2]; serum, duodenal injection 20 μmol/kg, 60 min, mean ± sd", "value": "3239 ± 515", "unit": "µg/mL"},
      {"measurement": "TC 90 min", "setting": "[2]; serum, duodenal injection 20 μmol/kg, 90 min, mean ± sd", "value": "3177 ± 443", "unit": "µg/mL"},
      {"measurement": "inhibitory activity on the interaction between PCSK9 and LDLR (in words)", "setting": "[3]", "value": "good inhibitory activity on the interaction between PCSK9 and LDLR"},
      {"measurement": "inhibitory activity on the interaction between PCSK9 and LDLR (in words)", "setting": "[3]; listed as SEQ ID NO: 231", "value": "good inhibitory effects in vitro"}
    ]}
  ]
}
